# According to US6403034B1, “Method of reducing the concentration of recalcitrant organic contamination in a soil matrix” (priority 1995, dated 2002):
# Read-outs that look alike come from different tables or passages of the source.
# Tests used:
# [1] = Relative recalcitrancy classification of organic contaminants (FIG. 1); type: physicochemical
# [2] = type: physicochemical; settings: for soil concentration reduced by: continuous ozonation for 56 days
# [3] = Laboratory ozonation of contaminants, incubation versus oxidation phase (FIGS. 2, 5, 6, 8-12); type: physicochemical; settings: for incubation time: lab conditions
# [4] = aqueous solubility; cited from earlier work
# [5] = Ozonation of contaminated soil slurry in 5-L reaction flask (Examples 1, 2 and 7); type: physicochemical
# [6] = by solubility, volatility and non-reactivity standards
compound,measurement,setting,value
c1ccccc1 [Benzene],relative recalcitrancy,[1]; [6],non-recalcitrant
ClC1=C(Cl)C2(Cl)C3C4C=CC(C4)C3C1(Cl)C2(Cl)Cl (stereo not shown) [Aldrin],relative recalcitrancy,[1],strongly recalcitrant
O=S1OCC2C(CO1)C1(Cl)C(Cl)=C(Cl)C2(Cl)C1(Cl)Cl (stereo not shown) [Endosulfan II],incubation phase,"[2]; 31 mg/kg, FIG. 17",about 16 days
same,soil concentration reduced by,[2],100%
c1ccc2cc3ccccc3cc2c1 [anthracene],relative recalcitrancy,[1]; [6],recalcitrant
Clc1c(Cl)c(Cl)c(Cl)c(Cl)c1Cl [HCB],incubation phase (ozonation time),[3],~8 h
c1cc2c3c(cccc3c1)CC2 [acenapthene],relative recalcitrancy,[1],recalcitrant
c1ccc2ccccc2c1 [napthalene],relative recalcitrancy,[1],recalcitrant
Clc1ccc(C(c2ccc(Cl)cc2)C(Cl)(Cl)Cl)cc1 [DDT],relative recalcitrancy,[1],strongly recalcitrant
CCOC(=O)CC(SP(=S)(OC)OC)C(=O)OCC (stereo not shown) [malathion],relative recalcitrancy,[1],recalcitrant
CCOP(=S)(OCC)Oc1ccc([N+](=O)[O-])cc1 [Ethyl Parathion],soil concentration reduced by,[2],100%
c1ccc(-c2ccccc2)cc1 [biphenyl],relative recalcitrancy,[1],marginally recalcitrant
same,solubility,[4],"5,200 μg/L"
CCc1ccccc1 [ethylbenzene],relative recalcitrancy,[1],non-recalcitrant
CCCCCCC [heptane],relative recalcitrancy,[1]; [6],non-recalcitrant
CCCCC(CC)COC(=O)c1ccccc1C(=O)OCC(CC)CCCC (stereo not shown) [bis(2-ethylhexyl)phthalate],incubation time,"[3]; FIGS. 6, 8, 9",less than 30 hours
same,relative recalcitrancy,[1]; [6],recalcitrant
same,concentration reduced by,"[5]; Example 2, in 72 hours of ozonation, start 597 mg/Kg",98.2%
c1ccc2c(c1)ccc1c3ccccc3ccc21 [chrysene],relative recalcitrancy,[1],recalcitrant
c1ccc2c(c1)cc1ccc3cccc4ccc2c1c34 [benzo(a)pyrene],incubation time,"[3]; FIGS. 6, 8, 9",more than 5 hours
CCCCCCCCOC(=O)c1ccccc1C(=O)OCCCCCCCC [Di-n-octyl phthalate],concentration reduced by,"[5]; Example 2, in 48 hours of ozonation, start 37 mg/Kg",97%
"Oc1c(Cl)c(Cl)c(Cl)c(Cl)c1Cl [PCP, Pentachlorophenol]",incubation time,[3]; FIG. 10,about 45 minutes
same,concentration reduced by,"[5]; Example 1, in 31 hours, start 28 mg/Kg",97.5%
ClC1=C(Cl)C2(Cl)C3C(Cl)C(Cl)CC3C1(Cl)C2(Cl)Cl (stereo not shown) [Chlordane],relative recalcitrancy,[1],strongly recalcitrant
CCOP(=S)(OCC)Oc1ccc([S+](C)[O-])cc1 (stereo not shown) [Phensulfothion],soil concentration reduced by,[2],100%
